Measured values as given in PMC10535624, “Curcuminoid Chalcones: Synthesis, Stability, and New Neuroprotective and Sonosensitising Activities” (Pharmaceuticals, 2023).
Where “and” joins values, the source holds several entries; their conditions need not be identical. Equal values may be shown once.

Assays:
[1] = Hydroxyl radical antioxidant capacity (HORAC); conditions: samples 1 mg/mL DMSO; mean ± SEM, n = 3
[2] = Photostability in the solutions (RP-HPLC); format: physicochemical; conditions: MeOH solution; for % Decomposition / Ct: 1.2 × 10^6 lux·h, 22 h; for ICH Classification: light
Protocol: However, as a result of the action of light, both compounds degraded completely (Table 6, Figure 12). The study was conducted in methanol solutions, irradiated in quartz cuvettes, and in solutions protected from light (aluminium foil). […] During irradiation, the temperature in the Suntest chamber was 35 °C. It was, therefore, concluded that both compounds are photolabile in solutions. […] The visible peaks with Rt values of 6.3 (Figure 12a,c) and 4.4 min (Figure 12b,d) were impurities of compounds 2 and 6, respectively.
Stock solutions of the test substances (2 or 6) were prepared by dissolving 1 mg of each test substance in 1.5 mL of a mixture of DMSO and MeOH (1:6, v/v). Then, 5 mL solutions of the tested compounds (c ~ 15 µg/mL) in MeOH were prepared. […] Each of the samples (protected and irradiated) was transferred to the chromatographic column. Samples before irradiation were also subjected to chromatographic analysis (t = 0) (Table 2).

[3] = Stress test: oxidative degradation (RP-HPLC); format: physicochemical; conditions: for ICH Classification: oxidising environment
Protocol: Stock solutions of the test substances (2 or 6) were prepared by dissolving 1 mg of each test substance in 1.5 mL of a mixture of DMSO and MeOH (1:6, v/v). Then, 2 mL solutions of compounds 2 and 6 were prepared at ~30 μg/mL in a hydrogen peroxide solution (1, 3, and 10%). The solutions were placed in dark glass vials and encapsulated, and after an appropriate time (Table 1) the samples were diluted with methanol (1:1, v/v) and transferred to the chromatographic column.

[4] = biological target: T1, glutathione reductase (GR) (Homo sapiens, UniProt P00390); experiment: Effect on GR activity; format: biochemical; conditions: samples 3 mM/dm^3 in DMSO; mean ± SEM, n = 3
T1 sequence (P00390 44-522): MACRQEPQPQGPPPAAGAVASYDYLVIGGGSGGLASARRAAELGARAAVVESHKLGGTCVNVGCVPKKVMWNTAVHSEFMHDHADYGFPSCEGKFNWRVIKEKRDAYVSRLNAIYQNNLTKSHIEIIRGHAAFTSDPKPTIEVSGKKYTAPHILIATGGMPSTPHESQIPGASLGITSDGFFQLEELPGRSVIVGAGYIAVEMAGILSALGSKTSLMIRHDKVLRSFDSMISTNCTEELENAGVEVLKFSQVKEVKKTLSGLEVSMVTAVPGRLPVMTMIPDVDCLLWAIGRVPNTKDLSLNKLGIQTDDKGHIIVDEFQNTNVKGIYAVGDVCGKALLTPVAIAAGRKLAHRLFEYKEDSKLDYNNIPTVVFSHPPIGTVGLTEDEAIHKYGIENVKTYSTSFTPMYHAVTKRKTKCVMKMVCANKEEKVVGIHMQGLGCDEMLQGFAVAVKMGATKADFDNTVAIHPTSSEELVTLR
Protocol: We decided to extend the study by measuring the compounds’ ability to inhibit glutathione reductase (GR) and GPx activities, the human cells’ main endogenous enzymatic defence systems. Therefore, we checked the influence of some curcuminoid chalcones on GR and GPx using in vitro spectroscopic methods (Table 2). Moreover, the effects of curcuminoid chalcones on CAT activity were estimated (Table 2).
(§1) The samples were dissolved in DMSO (Sigma D4540) to obtain a concentration of 3 mM/dm^3.
The analyses were performed strictly as described by Studzińska-Sroka et al..

[5] = Stress test: strong acid, strong base and neutral degradation (RP-HPLC); format: physicochemical
Protocol: Several tests were conducted using the ICH guidelines to assess the compound’s stability. In the stress test, two structural isomers of ester-type hybrid compounds were chosen to estimate the structure’s relationship to the compound’s stability. The tested substances were subjected to hydrolysis–solvolysis in neutral, acidic, and alkaline media. As solvents, water, hydrochloric acid, and sodium hydroxide were used in appropriate concentrations.
Reversed-phase HPLC was used to analyse the degree of degradation. Chromatograms were developed with DAD detection at 254 nm, 308 nm (λmax for 2), and 340 nm (λmax for 6). […] .
Then, 2.0 mL samples of the tested solutions (c ~60 µg/mL) were prepared in hydrochloric acid (0.1; 0.01 M) or sodium hydroxide solution (0.1, 0.01 M) and demineralised water. The solutions were transferred to glass vials, encapsulated, and stored in a thermal chamber at 90 °C, 40 °C, or 25 °C. After the appropriate time (Table 1), the samples were cooled, diluted with methanol (1:1), and transferred to the chromatography column.

[6] = biological target: AChE (Homo sapiens, UniProt P22303); experiment: Effect on AChE activity (modified Ellman's method); format: biochemical; conditions: samples 3 mM/dm^3 in DMSO, 0.035 mL; mean ± SEM, n = 3
Description: Neurodegenerative diseases are associated with the progressive damage of neurons. During the development of these diseases, there is a loss of nerve cells and a deficiency of […], serotonin, and norepinephrine levels. The ability to inhibit acetyl- (AChE) and butyrylcholinesterase (BChE) activities is seen, among others, in organophosphorus compounds, carbamate insecticides, phenoxyacetic pesticides, and hydrogen peroxide, as well as aliphatic ketones with the carbons C4–C9, e.g., 2,5-hexandione. AChE and BChE show differences in their susceptibility to inhibitors, behaviour in situations involving excess substrate, or substrate binding specificity. Unlike, other esterases, both enzymes hydrolyse choline esters at very high speeds. Thus, in our work, the modified Elman’s method was used to investigate the anti-AChE and anti-BChE effects of curcuminoid chalcone.
as §1
The analysis was performed strictly as described by Studzińska-Sroka et al., except that the volume of the tested samples added to the reaction mixture was 0.035 mL.

[7] = Photostability in the solid state (IR spectra of KBr tablets); conditions: for ICH Classification: light, solid phase; for Compatibility of the IR spectrum with the spectrum before irradiation: solid phase (KBr tablet)
[8] = protected from light (aluminium foil), 35 °C
[9] = acidic environment, HCl 0.01 M, 40 °C, 8 h
[10] = alkaline environment, NaOH 0.01 M, 25 °C, 2 h
[11] = neutral environment, H2O, 90 °C, 24 h
[12] = not protected, 1.2 × 10^6 lux·h
[13] = not protected, 6.0 × 10^6 lux·h

Chain of AChE (P22303 32-614): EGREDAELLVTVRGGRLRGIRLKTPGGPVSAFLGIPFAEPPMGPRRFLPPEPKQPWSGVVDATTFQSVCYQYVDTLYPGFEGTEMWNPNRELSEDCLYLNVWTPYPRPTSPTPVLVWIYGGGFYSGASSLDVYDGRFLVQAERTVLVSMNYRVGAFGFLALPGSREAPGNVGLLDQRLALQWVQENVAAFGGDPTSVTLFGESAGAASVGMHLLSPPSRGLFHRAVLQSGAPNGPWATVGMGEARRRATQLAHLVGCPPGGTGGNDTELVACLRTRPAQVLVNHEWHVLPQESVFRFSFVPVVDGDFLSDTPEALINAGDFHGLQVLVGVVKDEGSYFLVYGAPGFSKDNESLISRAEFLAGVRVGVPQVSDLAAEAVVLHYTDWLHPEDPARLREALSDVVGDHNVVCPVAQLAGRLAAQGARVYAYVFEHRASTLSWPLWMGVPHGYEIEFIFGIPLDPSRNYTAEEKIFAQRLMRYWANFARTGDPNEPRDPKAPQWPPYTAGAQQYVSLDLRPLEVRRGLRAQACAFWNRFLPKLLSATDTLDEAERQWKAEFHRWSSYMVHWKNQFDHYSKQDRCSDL

SMILES: COc1ccc(C=CC(=O)c2ccccc2)cc1OC(=O)C(C)c1ccc(CC(C)C)cc1 (centres unmarked) [Compound 6, 2-Methoxy-5-(3-oxo-3-phenylprop-1-en-1-yl)phenyl-2-(4-isobutylphenyl)-propionate]
- HORAC, Gallic Acid Equivalents [1]: 20.4 ± 3.0 µg/mL
- % Decomposition ([2]; not protected): 100%
- Ct ([2]; not protected): 0 µg/mL
- % Decomposition [2, 8]: 7.9%
- Ct [2, 8]: 13.8 µg/mL
- ICH Classification [2]: Photolabile
- % Decomposition ([3]; H2O2 1%, 30 min): <0.5%
- Ct ([3]; H2O2 1%, 30 min): 29.7 µg/mL
- % Decomposition ([3]; H2O2 3%, 24 h): <0.5%
- Ct ([3]; H2O2 3%, 24 h): 29.9 µg/mL
- % Decomposition ([3]; H2O2 10%, 24 h): <0.5%
- Ct ([3]; H2O2 10%, 24 h): 30.0 µg/mL
- ICH Classification ([3]; H2O2 10%, 24 h): practically stable
- GR Inhibition (%) [4]: did not inhibit and -
- % Decomposition ([5]; H2O, 90 °C, 24 h): 23.9%
- Ct ([5]; H2O, 90 °C, 24 h): 50.9 µg/mL
- % Decomposition ([5]; HCl 0.01 M, 40 °C, 8 h): 18% and 17.8%
- Ct ([5]; HCl 0.01 M, 40 °C, 8 h): 49.3 µg/mL
- % Decomposition ([5]; HCl 0.1 M, 90 °C, 16 h): 97.8%
- Ct ([5]; HCl 0.1 M, 90 °C, 16 h): 1.5 µg/mL
- % Decomposition ([5]; NaOH 0.01 M, 25 °C, 2 h): 100%
- Ct ([5]; NaOH 0.01 M, 25 °C, 2 h): 0 µg/mL
- % Decomposition ([5]; NaOH 0.1 M, 90 °C, 16 h): 100%
- Ct ([5]; NaOH 0.1 M, 90 °C, 16 h): 0 µg/mL
- ICH Classification [5, 9]: very unstable
- ICH Classification [5, 10]: extremely unstable
- ICH Classification [5, 11]: unstable
- AChE % (inhibition) [6]: 73.7 ± 5.1%
- AChE, Equivalent Concentration of Reference Compound Magniflorine [6]: 0.28 ± 0.02 µg/mL
- AChE, Equivalent Concentration of Reference Compound Rivastigmine [6]: 0.42 ± 0.03 µg/mL
- ICH Classification [7]: Photolabile
- Compatibility of the IR spectrum with the spectrum before irradiation [7, 12]: 0.9962
- Compatibility of the IR spectrum with the spectrum before irradiation [7, 13]: 0.9752
- Compatibility of the IR spectrum with the spectrum before irradiation ([7]; protected, 1.2 × 10^6 lux·h): 0.9997
- Compatibility of the IR spectrum with the spectrum before irradiation ([7]; protected, 6.0 × 10^6 lux·h): 0.9993

SMILES: COc1cc(C=CC(=O)c2ccccc2)ccc1OC(=O)C(C)c1ccc(CC(C)C)cc1 (centres unmarked) [Compound 2, 2-Methoxy-4-(3-oxo-3-phenylprop-1-en-1-yl)phenyl-2-(4-isobutylphenyl)-propionate]
- HORAC, Gallic Acid Equivalents [1]: 24.2 ± 2.3 µg/mL
- % Decomposition ([2]; not protected): 100%
- Ct ([2]; not protected): 0 µg/mL
- % Decomposition [2, 8]: 68% and 68.2%
- Ct [2, 8]: 4.8 µg/mL
- ICH Classification [2]: Photolabile
- % Decomposition ([3]; H2O2 1%, 30 min): <0.5%
- Ct ([3]; H2O2 1%, 30 min): 29.9 µg/mL
- % Decomposition ([3]; H2O2 3%, 24 h): <0.5%
- Ct ([3]; H2O2 3%, 24 h): 29.8 µg/mL
- % Decomposition ([3]; H2O2 10%, 24 h): <0.5%
- Ct ([3]; H2O2 10%, 24 h): 30.1 µg/mL
- ICH Classification ([3]; H2O2 10%, 24 h): practically stable
- GR Inhibition (%) [4]: 27.1 ± 4.0%
- GR activity (NADPH consumption rate) [4]: 1018 ± 150 nmol Depleted NADPH/min
- % Decomposition ([5]; H2O, 90 °C, 24 h): 24.4%
- Ct ([5]; H2O, 90 °C, 24 h): 46.3 µg/mL
- % Decomposition ([5]; HCl 0.01 M, 40 °C, 8 h): 44% and 43.8%
- Ct ([5]; HCl 0.01 M, 40 °C, 8 h): 33.7 µg/mL
- % Decomposition ([5]; HCl 0.1 M, 90 °C, 16 h): 91.8%
- Ct ([5]; HCl 0.1 M, 90 °C, 16 h): 5.0 µg/mL
- % Decomposition ([5]; NaOH 0.01 M, 25 °C, 2 h): 100%
- Ct ([5]; NaOH 0.01 M, 25 °C, 2 h): 0 µg/mL
- % Decomposition ([5]; NaOH 0.1 M, 90 °C, 16 h): 100%
- Ct ([5]; NaOH 0.1 M, 90 °C, 16 h): 0 µg/mL
- ICH Classification [5, 9]: very unstable
- ICH Classification [5, 10]: extremely unstable
- ICH Classification [5, 11]: unstable
- AChE % (inhibition) [6]: 90.5 ± 4.2%
- AChE, Equivalent Concentration of Reference Compound Magniflorine [6]: 0.34 ± 0.02 µg/mL
- AChE, Equivalent Concentration of Reference Compound Rivastigmine [6]: 0.52 ± 0.02 µg/mL
- ICH Classification [7]: Photolabile
- Compatibility of the IR spectrum with the spectrum before irradiation [7, 12]: 0.9404
- Compatibility of the IR spectrum with the spectrum before irradiation [7, 13]: 0.9017
- Compatibility of the IR spectrum with the spectrum before irradiation ([7]; protected, 1.2 × 10^6 lux·h): 0.9995
- Compatibility of the IR spectrum with the spectrum before irradiation ([7]; protected, 6.0 × 10^6 lux·h): 0.9994
